Assay results reported in article PMC6691788, “Design and synthesis of phthalazine-based compounds as potent anticancer agents with potential antiangiogenic activity via VEGFR-2 inhibition” (Journal of Enzyme Inhibition and Medicinal Chemistry, 2019).

Tests used:
MDA-MB-435 = assay: NCI 60 cell panel SRB screen; assay type: cell-based; conditions: Homo sapiens; for activity at 10 µM: MDA-MB-435, read-out: percent cell growth promotion
MDA-MB 231/ATCC = assay: NCI 60 cell panel SRB screen; assay type: cell-based; conditions: Homo sapiens; for activity at 10 µM: MDA-MB-231, read-out: percent cell growth promotion
VEGFR-2 tyrosine kinase = biological target: T1, VEGFR-2 tyrosine kinase (Homo sapiens, UniProt P35968); assay: In vitro VEGFR-2 tyrosine kinase assay (BPS Bioscience); assay type: biochemical; conditions: read-out: VEGFR-2 % inhibition; 10 μM concentration
T1 construct: purchased BPS Bioscience 40301
T1 sequence (P35968 20-1356): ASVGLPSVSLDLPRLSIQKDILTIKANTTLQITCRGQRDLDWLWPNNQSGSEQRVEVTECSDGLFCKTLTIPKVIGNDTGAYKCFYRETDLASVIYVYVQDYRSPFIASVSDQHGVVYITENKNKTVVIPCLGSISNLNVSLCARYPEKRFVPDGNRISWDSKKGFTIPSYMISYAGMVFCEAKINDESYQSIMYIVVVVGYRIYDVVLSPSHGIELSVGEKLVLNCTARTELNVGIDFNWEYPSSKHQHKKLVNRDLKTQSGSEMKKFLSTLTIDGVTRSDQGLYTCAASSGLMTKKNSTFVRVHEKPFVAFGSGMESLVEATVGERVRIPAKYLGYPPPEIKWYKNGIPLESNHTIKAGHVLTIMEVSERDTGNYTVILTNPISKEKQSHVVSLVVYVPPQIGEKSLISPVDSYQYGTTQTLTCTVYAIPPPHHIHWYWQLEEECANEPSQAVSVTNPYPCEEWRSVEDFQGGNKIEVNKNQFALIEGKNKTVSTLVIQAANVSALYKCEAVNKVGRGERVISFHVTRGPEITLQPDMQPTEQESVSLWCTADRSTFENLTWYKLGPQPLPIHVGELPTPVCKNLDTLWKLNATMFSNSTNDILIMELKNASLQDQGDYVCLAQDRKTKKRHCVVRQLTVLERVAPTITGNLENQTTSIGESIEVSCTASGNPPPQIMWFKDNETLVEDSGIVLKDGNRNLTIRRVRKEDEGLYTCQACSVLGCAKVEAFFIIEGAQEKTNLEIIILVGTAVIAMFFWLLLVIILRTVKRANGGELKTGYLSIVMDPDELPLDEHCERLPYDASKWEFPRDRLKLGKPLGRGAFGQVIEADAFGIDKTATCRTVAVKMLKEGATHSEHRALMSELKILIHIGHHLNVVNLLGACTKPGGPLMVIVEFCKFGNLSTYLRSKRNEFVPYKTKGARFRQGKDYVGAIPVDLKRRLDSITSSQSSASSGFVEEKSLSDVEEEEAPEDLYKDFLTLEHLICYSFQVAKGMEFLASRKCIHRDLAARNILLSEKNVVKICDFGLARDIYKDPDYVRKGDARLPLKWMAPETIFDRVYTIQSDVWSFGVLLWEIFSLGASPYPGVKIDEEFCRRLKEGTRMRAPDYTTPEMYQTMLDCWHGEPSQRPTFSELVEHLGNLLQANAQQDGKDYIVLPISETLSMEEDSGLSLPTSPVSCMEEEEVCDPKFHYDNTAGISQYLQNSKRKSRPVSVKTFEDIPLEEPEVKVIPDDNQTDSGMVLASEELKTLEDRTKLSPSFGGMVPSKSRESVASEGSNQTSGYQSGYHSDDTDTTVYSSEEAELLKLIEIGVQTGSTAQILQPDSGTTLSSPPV
In short: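 Single-point screen at 10 µM: recombinant VEGFR with poly(Glu,Tyr) 0.2 mg/ml, 10 μM ATP, Tris pH 7.4, MgCl2, BSA, 1% DMSO, 40 min at 30 °C; residual ATP read by Kinase-Glo Plus luminescence.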

DU-145 = assay: NCI 60 cell panel SRB screen; assay type: cell-based; conditions: Homo sapiens; for activity at 10 µM: DU-145, single dose 10 μM, read-out: percent cell growth promotion
MOLT-4 = assay: NCI 60 cell panel SRB screen; assay type: cell-based; conditions: Homo sapiens; for activity at 10 µM: MOLT-4, single dose 10 μM, read-out: percent cell growth promotion
K-562 = assay: NCI 60 cell panel SRB screen; assay type: cell-based; conditions: Homo sapiens, K562; for activity at 10 µM: K-562, single dose 10 μM, read-out: percent cell growth promotion
UACC-257 = assay: NCI 60 cell panel SRB screen; assay type: cell-based; conditions: Homo sapiens; for activity at 10 µM: UACC-257, read-out: percent cell growth promotion
MCF7 = assay: NCI 60 cell panel SRB screen; assay type: cell-based; conditions: Homo sapiens; for activity at 10 µM: MCF7, read-out: percent cell growth promotion
HT29 = assay: NCI 60 cell panel SRB screen; assay type: cell-based; conditions: Homo sapiens, HT-29; for activity at 10 µM: HT29, single dose 10 μM, read-out: percent cell growth promotion
T-47D = assay: NCI 60 cell panel SRB screen; assay type: cell-based; conditions: Homo sapiens, T47D; for activity at 10 µM: read-out: percent cell growth promotion
OVCAR-3 = assay: NCI 60 cell panel SRB screen; assay type: cell-based; conditions: Homo sapiens; for activity at 10 µM: OVCAR-3, single dose 10 μM, read-out: percent cell growth promotion
CAKI-1 = assay: NCI 60 cell panel SRB screen; assay type: cell-based, human; conditions: for activity at 10 µM: CAKI-1, single dose 10 μM, read-out: percent cell growth promotion
BT-549 = assay: NCI 60 cell panel SRB screen; assay type: cell-based; conditions: Homo sapiens; for activity at 10 µM: BT-549, read-out: percent cell growth promotion
HL-60(TB) = assay: NCI 60 cell panel SRB screen; assay type: cell-based; conditions: Homo sapiens; for activity at 10 µM: single dose 10 μM, read-out: percent cell growth promotion
IGROV1 = assay: NCI 60 cell panel SRB screen; assay type: cell-based; conditions: Homo sapiens, IGROV-1; for activity at 10 µM: IGROV1, single dose 10 μM, read-out: percent cell growth promotion
NCI-H522 = assay: NCI 60 cell panel SRB screen; assay type: cell-based; conditions: Homo sapiens; for activity at 10 µM: NCI-H522, single dose 10 μM, read-out: percent cell growth promotion

`O=C(Nc1ccccc1)Nc1ccc(Oc2nnc(Cl)c3ccccc23)cc1` [Compound 13a, 1–(4-(4-Chlorophthalazin-1-yloxy)phenyl)-3-phenylurea] was tested, and the GI50 (MDA-MB-435; MDA-MB-435) was 7.54 µM, the IC (TGI) (MDA-MB-435; MDA-MB-435, read-out: TGI) was > 25 µM and the activity at 10 µM (MDA-MB-435) was 48.6%. The CC50 (MDA-MB-435; MDA-MB-435, 5 log dose, 48 h, read-out: LC50 (the source's name)) was > 25 µM, the GI50 (MDA-MB 231/ATCC; MDA-MB-231) was 4.76 µM and the IC (TGI) (MDA-MB 231/ATCC; MDA-MB-231, read-out: TGI) was 12.3 µM. For the same compound, the activity at 10 µM (MDA-MB 231/ATCC) was 32.1%, the CC50 (MDA-MB 231/ATCC; MDA-MB-231, MDA-MDA 231/ATCC, 5 log dose, 48 h, read-out: LC50 (the source's name)) was > 25 µM and the inhibition at 10 µM (VEGFR-2 tyrosine kinase) was 24%. For the same compound, the GI50 (DU-145; DU-145, 5 log dose) was 3.01 µM, the IC (TGI) (DU-145; DU-145, 5 log dose) was 10.5 µM and the CC50 (DU-145; DU-145, 5 log dose, 48 h, read-out: LC50 (the source's name)) was > 25 µM. The activity at 10 µM (DU-145) was 39%, the GI50 (MOLT-4; MOLT-4, 5 log dose) was 2.6 µM and the IC (TGI) (MOLT-4; MOLT-4, 5 log dose) was 11.4 µM. The CC50 (MOLT-4; MOLT-4, 5 log dose, 48 h, read-out: LC50 (the source's name)) was > 25 µM, the GI50 (K-562; K-562, 5 log dose) was 6.21 µM and the IC (TGI) (K-562; K-562, 5 log dose) was > 25 µM. For the same compound, the CC50 (K-562; K-562, 5 log dose, 48 h, read-out: LC50 (the source's name)) was > 25 µM, the activity at 10 µM (K-562) was 51.6% and the GI50 (UACC-257; UACC-257) was 3.96 µM. The IC (TGI) (UACC-257; UACC-257, read-out: TGI) was > 25 µM, the activity at 10 µM (UACC-257) was 22% and the CC50 (UACC-257; UACC-257, 5 log dose, 48 h, read-out: LC50 (the source's name)) was > 25 µM. The GI50 (MCF7; MCF7) was 1.32 µM, the IC (TGI) (MCF7; MCF7, read-out: TGI) was 6.32 µM and the activity at 10 µM (MCF7) was -4.15%. For the same compound, the CC50 (MCF7; MCF7, 5 log dose, 48 h, read-out: LC50 (the source's name)) was 20.6 µM, the GI50 (HT29; HT29, 5 log dose) was 5.26 µM and the IC (TGI) (HT29; HT29, 5 log dose) was > 25 µM. The CC50 (HT29; HT29, 5 log dose, 48 h, read-out: LC50 (the source's name)) was > 25 µM, the activity at 10 µM (HT29) was 23.8% and the GI50 (T-47D) was 0.63 µM. The IC (TGI) (T-47D; read-out: TGI) was 10.8 µM, the activity at 10 µM (T-47D) was -18% and the CC50 (T-47D; T-47D, 5 log dose, 48 h, read-out: LC50 (the source's name)) was > 25 µM. For the same compound, the GI50 (OVCAR-3; OVCAR-3, 5 log dose) was 2.64 µM, the IC (TGI) (OVCAR-3; OVCAR-3, 5 log dose) was 5.97 µM and the CC50 (OVCAR-3; OVCAR-3, 5 log dose, 48 h, read-out: LC50 (the source's name)) was 13.5 µM. The activity at 10 µM (OVCAR-3) was 25.4%, the TGI (CAKI-1; CAKI-1, 5 log dose) was 14.3 µM and the GI50 (CAKI-1; Homo sapiens, CAKI-1, 5 log dose) was 3.34 µM. For the same compound, the CC50 (CAKI-1; Homo sapiens, CAKI-1, 5 log dose, 48 h, read-out: LC50 (the source's name)) was > 25 µM, the activity at 10 µM (CAKI-1; Homo sapiens) was 84.4% and the GI50 (BT-549; BT-549) was 3.06 µM. The IC (TGI) (BT-549; BT-549, read-out: TGI) was 10.8 µM, the activity at 10 µM (BT-549) was 47.7% and the CC50 (BT-549; BT-549, 5 log dose, 48 h, read-out: LC50 (the source's name)) was > 25 µM. The GI50 (HL-60(TB); 5 log dose) was 2.7 µM, the IC (TGI) (HL-60(TB); 5 log dose) was > 25 µM and the CC50 (HL-60(TB); 5 log dose, 48 h, read-out: LC50 (the source's name)) was > 25 µM. The activity at 10 µM (HL-60(TB)) was 12.1%, the GI50 (IGROV1; IGROV1, 5 log dose) was 3.32 µM and the IC (TGI) (IGROV1; IGROV1, 5 log dose) was 7.92 µM. It also gave a CC50 (IGROV1; IGROV1, 5 log dose, 48 h, read-out: LC50 (the source's name)) of 18.9 µM, an activity at 10 µM (IGROV1) of 37.2% and a GI50 (NCI-H522; NCI-H522, 5 log dose) of 2.8 µM. For the same compound, the IC (TGI) (NCI-H522; NCI-H522, 5 log dose) was 9.68 µM, the CC50 (NCI-H522; NCI-H522, 5 log dose, 48 h, read-out: LC50 (the source's name)) was > 25 µM and the activity at 10 µM (NCI-H522) was 2%.
Compound `c1ccc(N2CCN(c3nncc4ccccc34)CC2)nc1` [Compound 8d, 1–(4-(Pyridin-2-yl)piperazin-1-yl)phthalazine] has an activity at 10 µM (MDA-MB-435) of 104%, an activity at 10 µM (MDA-MB 231/ATCC) of 108% and an inhibition at 10 µM (VEGFR-2 tyrosine kinase) of 5%. The activity at 10 µM (DU-145) was 99%, the activity at 10 µM (MOLT-4) was 106% and the activity at 10 µM (K-562) was 106%. It also gave an activity at 10 µM (UACC-257) of 99%, an activity at 10 µM (MCF7) of 105% and an activity at 10 µM (HT29) of 98.2%. For the same compound, the activity at 10 µM (T-47D) was 101%, the activity at 10 µM (OVCAR-3) was 99.9% and the activity at 10 µM (CAKI-1; Homo sapiens) was 109%. It also gave an activity at 10 µM (BT-549) of 104%, an activity at 10 µM (HL-60(TB)) of 96.6% and an activity at 10 µM (IGROV1) of 116%. For the same compound, the activity at 10 µM (NCI-H522) was 99.4%.
Work on `Cc1nnc(Nc2ccc(NC(=O)c3ccc(Cl)cc3)cc2)c2ccccc12` [Compound 5d, 4-Chloro-N-(4–(4-methylphthalazin-1-ylamino)phenyl)benzamide] yielded an activity at 10 µM (MDA-MB-435) of 102%, an activity at 10 µM (MDA-MB 231/ATCC) of 73% and an inhibition at 10 µM (VEGFR-2 tyrosine kinase) of 15%. It also gave an activity at 10 µM (DU-145) of 102%, an activity at 10 µM (MOLT-4) of 83.5% and an activity at 10 µM (K-562) of 101%. The activity at 10 µM (UACC-257) was 97.4%, the activity at 10 µM (MCF7) was 84.5% and the activity at 10 µM (HT29) was 94.3%. For the same compound, the activity at 10 µM (T-47D) was 79.8%, the activity at 10 µM (OVCAR-3) was 93.3% and the activity at 10 µM (CAKI-1; Homo sapiens) was 86.3%. It also gave an activity at 10 µM (BT-549) of 92.2%, an activity at 10 µM (HL-60(TB)) of 103% and an activity at 10 µM (IGROV1) of 101%. The activity at 10 µM (NCI-H522) was 94.7%.
